In paper PMC6106931 (Alzheimer's Research & Therapy, 2018):
“Also recorded” adds a separate entry of the source.

What was measured:
[1] = Plasma and CSF pharmacokinetics, noncompartmental analysis, Study ALZ1008; type: in vivo, human; conditions: for Kp at 28 day: CSF / free plasma, observed plasma concentration, free fraction 6%, read-out: Ratio C28d (CSF)/free plasma, Mean (SD); for concentration at 28 day: CSF, read-out: C28d, CSF concentration at Day 28, Mean (SD); for AUC: read-out: Plasma AUCτ, Day 28, Mean (SD)
Description: Total apparent clearance for day 28 was calculated as dose/AUCτ.
(§1) The lower limit of quantification (LLOQ) was 1 ng/ml.

[2] = Plasma and CSF pharmacokinetics, population PK modeling, Study ALZ1005; type: in vivo, human; conditions: for Kp at 28 day: CSF / free plasma; for concentration at 28 day: CSF, read-out: C28d, CSF concentration at Day 28, Mean (SD); for AUC: read-out: Plasma AUCτ, Day 28, Mean (SD); for Cmax: read-out: Plasma Cmax, Day 28, Mean (SD)
Description: CSF and plasma collection and processing, as well as apolipoprotein E (APOE) ε4 genotyping, are described in Additional file 2. Population PK modeling from sparse PK samples collected in the ALZ1005 Study was performed to derive individual steady-state maximum plasma concentration [Cmax] and area under the concentration-time profile during the dosing interval at steady state [AUC from 0 to 24 hours postdosing]. This model was also used to derive PK/PD simulations of CSF Aβ1–40 reduction (described in “Pharmacokinetic/pharmacodynamic relationship” section below).
as §1

[3] = Clinical safety, Study ALZ1008; conditions: Japanese preclinical AD
Description: Safety and tolerability were assessed during the study by recording adverse events (AEs), clinically significant abnormalities, clinical laboratory tests, ECG, and vital signs and by performing physical, neurological, and MRI examinations. All enrolled participants were included in the safety analysis population.

[4] = Cognitive evaluations (CANTAB Elect, RBANS, CDR-SB, MMSE), Study ALZ1005; type: in vivo, human; conditions: Caucasian early AD
Description: When multiple assessments were performed at the same visit by independent raters, the sequential order of testing was RBANS first followed by CDR, MMSE, and CANTAB Elect, and if raters for RBANS and CDR were the same, then CDR was performed prior to RBANS.
The CDR assessed three domains of cognition (memory, orientation, judgment/problem solving) and three domains of function (community affairs, home/hobbies, personal care) using structured interviews of both the patient and a companion/informant by a trained rater and scored using a standard methodology. CDR global score for the six domains range from 0 to 3 with 0 indicating no dementia and 3 indicating severe dementia. It can be summed to obtain CDR Sum of Boxes (CDR-SB) with scores ranging from 0 to 18. CDR and CDR-Japanese version global score has been used in AD trials as a global measure of disease progression.
RBANS battery includes 12 subsets that measure 5 indices; the Digit Span and Coding subtests measure Attention, the Picture Naming and Semantic Fluency subtests measure Language, the Figure Copy and Line Orientation subtests measure Visuospatial/Construction, List Learning and Store Memory subtests measure Immediate Memory, and List Recall, List Recognition, Store Memory and Figure Recall measure Delayed Memory. RBANS has been used in multinational AD clinical trials.
The CANTAB test battery consists of paired associated learning (PAL), reaction time (RTI) and spatial working memory (SWM). Performance in this test battery is associated with pathologic Aβ and tau levels and enables identification of individuals with memory impairment who are likely to develop AD and those with questionable dementia. Scores have a sensitivity of 0.83 and a specificity of 0.82 when differentiating individuals with MCI from healthy older adults. The PAL test assesses visuospatial episodic memory and the outcome measure is the adjusted number of errors committed at the 6-pattern stage. The test-retest reliability for PAL is 0.75 in MCI and 0.85 in AD. The RTI test assesses psychomotor processing speed. […] The test-retest reliability is 0.68 in MCI and 0.72 in AD. The SWM test assesses working memory and executive function. The outcome measure is the number errors made during performing of the task. The test-retest reliability is 0.55 in MCI and 0.68 in AD.
MMSE rates subjects on orientation, registration, attention, calculation, recall and language. The maximum score is 30, and lower the score the greater the impairment.

[5] = set-up: method as in PMID 29067308; conditions: ALZ1002 Study; CV = 19%; cited from earlier work
[6] = Japanese preclinical AD, 10 mg q.d.
[7] = Japanese preclinical AD, 50 mg q.d.
[8] = human, plasma, oral, Caucasian early AD, 10 mg q.d., population PK modeling
[9] = human, plasma, oral, Caucasian early AD, 50 mg q.d., population PK modeling

C[C@@]1(c2cc(NC(=O)c3ccc(C#N)cn3)ccc2F)C=CSC(N)=N1 [atabecestat]
day at or before which steady-state PK was reached ([1]; Japanese participants, based on mean predose concentrations): ≤ 8 days
DN AUCτ (dose normalization to 5 mg), Day 28, Mean (SD) [1, 6]: 555 (158) ng.h/mL
DN Cmax (dose normalization to 5 mg), Day 28, Mean (SD) [1, 6]: 53.6 (14.1) ng/mL
Plasma Tmax, Day 28, Median (Range) [1, 6]: 2.0 (1.0-3.0) h
DN AUCτ (dose normalization to 5 mg), Day 28, Mean (SD) [1, 7]: 473 (255) ng.h/mL
DN Cmax (dose normalization to 5 mg), Day 28, Mean (SD) [1, 7]: 51.6 (26.7) ng/mL
Plasma Cmax, Day 28, Mean (SD) [1, 7]: 516 (267) ng/mL
Plasma Tmax, Day 28, Median (Range) [1, 7]: 1.5 (1.0-2.0) h
Kp at 28 day ([1]; human, oral, 10 mg, Japanese preclinical AD, 10 mg q.d.): 0.65
Kp at 28 day ([1]; human, oral, 50 mg, Japanese preclinical AD, 50 mg q.d.): 0.83
concentration at 28 day ([1]; human, oral, Japanese preclinical AD, 10 mg q.d.): 3.29 ng/mL
concentration at 28 day ([1]; human, oral, Japanese preclinical AD, 50 mg q.d.): 19.1 ng/mL
AUC ([1]; human, plasma, oral, Japanese preclinical AD, 10 mg q.d.): 1110 ng·h/mL
Cmax ([1]; human, plasma, oral, Japanese preclinical AD, 10 mg q.d., read-out: Plasma Cmax, Day 28, Mean (SD)): 107 ng/mL
AUC ([1]; human, plasma, oral, Japanese preclinical AD, 50 mg q.d.): 4730 ng·h/mL
CNS penetrance of unbound drug ([2]; Caucasian and Japanese early AD): high central nervous system penetrance of unbound drug; also recorded: high CNS penetrance of unbound drug
CL/F ([2]; Caucasian early AD (preclinical AD and MCI due to AD), 10 and 50 mg q.d., population PK estimate, intersubject CV 30%): 8.32 L/h
DN AUCτ (dose normalization to 5 mg), Day 28, Mean (SD) ([2]; Caucasian early AD, 10 mg q.d.): 616 (185) ng.h/mL
DN C28d (CSF, dose normalization to 5 mg), Mean (SD) ([2]; Caucasian early AD, 10 mg q.d.): 1.54 (0.52) ng/mL
DN Cmax (dose normalization to 5 mg), Day 28, Mean (SD) ([2]; Caucasian early AD, 10 mg q.d.): 55 (10) ng/mL
DN AUCτ (dose normalization to 5 mg), Day 28, Mean (SD) ([2]; Caucasian early AD, 50 mg q.d.): 620 (171) ng.h/mL
DN C28d (CSF, dose normalization to 5 mg), Mean (SD) ([2]; Caucasian early AD, 50 mg q.d.): 1.51 (0.71) ng/mL
PK linearity ([2]; both populations, 10 and 50 mg): linear PK
Kp at 28 day ([2]; human, oral, Caucasian early AD, 10 mg q.d., simulated plasma concentration, free fraction 6%, read-out: Ratio C28d (CSF)/free plasma, Mean (SD)): 0.789
Kp at 28 day ([2]; human, oral, Caucasian early AD, 50 mg q.d., simulated plasma concentration, free fraction 6%, read-out: Ratio C28d (CSF)/free plasma, Mean (SD)): 0.892
Kp at 28 day ([2]; human, oral, Caucasian early AD, 10-mg and 50-mg groups together, day 28): 0.84
concentration at 28 day ([2]; human, oral, Caucasian early AD, 10 mg q.d.): 3.08 ng/mL
concentration at 28 day ([2]; human, oral, Caucasian early AD, 50 mg q.d.): 15.1 ng/mL
Tmax at 28 day [2, 8]: 1.7 h
AUC [2, 8]: 1230 ng·h/mL
Cmax [2, 8]: 110 ng/mL
AUC [2, 9]: 6200 ng·h/mL
Cmax [2, 9]: 550 ng/mL
Tmax ([2]; human, plasma, oral, Caucasian early AD, 50 mg q.d., population PK modeling, read-out: Plasma Tmax, Day 28): 1.8 h
incidence of SAE [3]: no reported incidence of SAE
changes in QTcF ([3]; no changes from baseline > 30-ms): no clinically significant changes
CDR-SB Total Score, change from baseline at day 28, Diff. of LS Means (SE) vs placebo ([4]; 10 mg): ^-0.07 (0.305)
CDR-SB Total Score, change from baseline at day 28, LS Mean ([4]; 10 mg): ^-0.04
CDR-SB Total Score, change from baseline at day 28, Mean (SD) ([4]; 10 mg): ^-0.04 (0.660)
MMSE Total Score, change from baseline at day 28, Diff. of LS Means (SE) vs placebo ([4]; 10 mg): ^-1.33 (0.906)
MMSE Total Score, change from baseline at day 28, LS Mean ([4]; 10 mg): ^-0.76
MMSE Total Score, change from baseline at day 28, Mean (SD) ([4]; 10 mg): ^-0.40 (2.971)
PAL Total Errors 6 Shapes Adjusted, change from baseline at day 28, Diff. of LS Means (SE) vs placebo ([4]; 10 mg): ^-1.14 (2.086)
PAL Total Errors 6 Shapes Adjusted, change from baseline at day 28, LS Mean ([4]; 10 mg): ^0.87
RBANS Total Scale, change from baseline at day 28, Diff. of LS Means (SE) vs placebo ([4]; 10 mg): ^-4.39 (2.762)
RBANS Total Scale, change from baseline at day 28, LS Mean ([4]; 10 mg): ^0.07
RBANS Total Scale, change from baseline at day 28, Mean (SD) ([4]; 10 mg): ^0.33 (4.995)
RTI Simple Reaction Time Mean, change from baseline at day 28, Diff. of LS Means (SE) vs placebo ([4]; 10 mg): ^41.89 (23.130)
RTI Simple Reaction Time Mean, change from baseline at day 28, LS Mean ([4]; 10 mg): ^14.30
SWM Between Errors 4-8 Boxes, change from baseline at day 28, Diff. of LS Means (SE) vs placebo ([4]; 10 mg): ^0.06 (2.631)
SWM Between Errors 4-8 Boxes, change from baseline at day 28, LS Mean ([4]; 10 mg): ^1.48
CDR-SB Total Score, change from baseline at day 28, Diff. of LS Means (SE) vs placebo ([4]; 50 mg): ^0.51 (0.300)
CDR-SB Total Score, change from baseline at day 28, LS Mean ([4]; 50 mg): ^0.54
CDR-SB Total Score, change from baseline at day 28, Mean (SD) ([4]; 50 mg): ^0.54 (1.082)
MMSE Total Score, change from baseline at day 28, Diff. of LS Means (SE) vs placebo ([4]; 50 mg): ^-1.29 (0.880)
MMSE Total Score, change from baseline at day 28, LS Mean ([4]; 50 mg): ^-0.73
MMSE Total Score, change from baseline at day 28, Mean (SD) ([4]; 50 mg): ^-0.75 (3.317)
PAL Total Errors 6 Shapes Adjusted, change from baseline at day 28, Diff. of LS Means (SE) vs placebo ([4]; 50 mg): ^-1.44 (2.037)
PAL Total Errors 6 Shapes Adjusted, change from baseline at day 28, LS Mean ([4]; 50 mg): ^0.57
RBANS Total Scale, change from baseline at day 28, Diff. of LS Means (SE) vs placebo ([4]; 50 mg): ^-2.48 (2.705)
RBANS Total Scale, change from baseline at day 28, LS Mean ([4]; 50 mg): ^1.97
RBANS Total Scale, change from baseline at day 28, Mean (SD) ([4]; 50 mg): ^1.88 (10.392)
RTI Simple Reaction Time Mean, change from baseline at day 28, Diff. of LS Means (SE) vs placebo ([4]; 50 mg): ^33.19 (23.367)
RTI Simple Reaction Time Mean, change from baseline at day 28, LS Mean ([4]; 50 mg): ^5.60
SWM Between Errors 4-8 Boxes, change from baseline at day 28, Diff. of LS Means (SE) vs placebo ([4]; 50 mg): ^-0.48 (2.693)
SWM Between Errors 4-8 Boxes, change from baseline at day 28, LS Mean ([4]; 50 mg): ^0.93
RBANS total scale, MMSE total and CDR Sum of Boxes change from baseline at day 28 ([4]; any treatment group): no meaningful change
CANTAB (PAL, RTI, SWM) changes from baseline at day 28 ([4]; atabecestat treatment groups): No meaningful changes
oral clearance (CL/F), model-based estimate [5]: 10.5 L/h
